The values that follow come from article PMC10138654, “Structural Insights into M1 Muscarinic Acetylcholine Receptor Signaling Bias between Gαq and β-Arrestin through BRET Assays and Molecular Docking” (International Journal of Molecular Sciences, 2023).

Like-named read-outs stand apart in the source and are kept apart here.

As a reminder, the EC50 is the concentration needed to bring the measured effect to its halfway point.

Experiment [1] has as its target T1, M1mAChR (Homo sapiens, UniProt P11229).
T1 construct: host or cells: HEK-293T
Briefly: cell-based. To be noted: for EC50: HEK293T cells.
Target sequence in this assay (P50148 whole entry partner, one chain of several): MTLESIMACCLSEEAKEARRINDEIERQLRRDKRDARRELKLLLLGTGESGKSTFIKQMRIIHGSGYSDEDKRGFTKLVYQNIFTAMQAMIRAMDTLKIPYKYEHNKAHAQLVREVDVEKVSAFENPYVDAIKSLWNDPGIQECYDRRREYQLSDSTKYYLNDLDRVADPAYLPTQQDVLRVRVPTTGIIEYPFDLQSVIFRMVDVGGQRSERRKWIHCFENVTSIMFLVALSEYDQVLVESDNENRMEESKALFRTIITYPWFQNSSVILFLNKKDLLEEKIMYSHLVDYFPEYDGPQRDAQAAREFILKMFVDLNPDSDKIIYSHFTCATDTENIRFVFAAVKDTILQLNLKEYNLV
Target sequence in this assay (P62879 2-340 partner limits assumed, one chain of several): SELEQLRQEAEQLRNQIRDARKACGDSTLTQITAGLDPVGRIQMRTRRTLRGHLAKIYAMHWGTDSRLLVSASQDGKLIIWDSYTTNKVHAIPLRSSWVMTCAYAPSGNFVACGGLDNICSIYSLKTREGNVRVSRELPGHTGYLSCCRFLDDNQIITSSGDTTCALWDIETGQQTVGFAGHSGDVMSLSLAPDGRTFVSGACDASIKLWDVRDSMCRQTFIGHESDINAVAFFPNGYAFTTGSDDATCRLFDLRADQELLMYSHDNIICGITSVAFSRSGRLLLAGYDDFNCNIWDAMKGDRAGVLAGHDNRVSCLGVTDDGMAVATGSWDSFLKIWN
Target sequence in this assay (P59768 2-68 partner limits assumed, one chain of several): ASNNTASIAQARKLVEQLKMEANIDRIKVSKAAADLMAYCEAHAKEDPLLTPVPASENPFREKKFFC

The target of experiment [2] is T2, M1mAChR (Homo sapiens, UniProt P11229).
T2 sequence (P11229 1-460): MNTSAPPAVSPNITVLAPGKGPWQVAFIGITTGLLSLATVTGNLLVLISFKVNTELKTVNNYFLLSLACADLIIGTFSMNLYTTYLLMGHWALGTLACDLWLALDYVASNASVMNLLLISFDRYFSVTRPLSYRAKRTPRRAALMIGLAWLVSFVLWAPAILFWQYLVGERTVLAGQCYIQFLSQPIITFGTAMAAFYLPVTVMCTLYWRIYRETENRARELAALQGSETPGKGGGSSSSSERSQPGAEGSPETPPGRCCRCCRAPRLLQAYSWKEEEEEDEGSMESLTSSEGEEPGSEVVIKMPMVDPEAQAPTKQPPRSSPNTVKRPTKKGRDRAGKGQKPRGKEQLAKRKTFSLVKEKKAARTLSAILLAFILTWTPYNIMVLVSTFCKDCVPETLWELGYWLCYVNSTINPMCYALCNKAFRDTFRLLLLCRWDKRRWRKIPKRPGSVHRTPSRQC
Briefly: cell-based. To be noted: for EC50: CHO-M1 cells, unit inferred, read-out: EC50, Fluo4-AM calcium, printed in Figure 6 panels B-G. Here is the method:
The M1mAChR receptor primarily couples with Gαq, which connects it to several signaling pathways, such as PLC (phospholipase C, PLC), IP3 (inositol triphosphate, IP3), DAG (diacylglycerol, DAG), PKC (protein kinase C, PKC), and calcium signaling. Additionally, the Gαq-PLC signaling pathway plays a role in the activation of cAMP ([…], cAMP) via IP3-calcium release and calmodulin [9].
The influx of intracellular calcium was determined using Fluo4-AM (DOJINDO, Tonomachi, Japan, Cat. No.F311). CHO-M1 cells were seeded on 96-well plates at a density of 40,000 cells/well. The cells were treated with 5 µM of Fluo4-AM in 5 mM of CaCl2 buffer and incubated for 30 min at 37 °C in complete darkness.

In experiment [3] the target is T2, M1mAChR. In words: cell-based. To be noted: for EC50: CHO-M1 cells, unit inferred, read-out: EC50, β-arrestin2 recruitment by FRET, printed in Figure 6 panels I-N. Here is the method:
To further analyze the signaling bias of the agonists, a β-arrestin recruitment kit was utilized based on HTRF (Homogeneous Time Resolved Fluorescence, HTRF) technology. The interaction between native β-arrestin2 and AP2 was detected using a Europium cryptate-labeled AP2 (Adaptin2, AP2) antibody (Europium donor) and a d2-labeled β-arrestin2 antibody (acceptor) (Figure 6H).
We used the β-arrestin2 recruitment KIT test (PerkinElmer, Waltham, MA, USA, Cat. No. 62BDBAR2PEB). Following 24 h of incubation, the cell culture medium was removed, and Stimulation Buffer 4 was added to the negative control group and the blank group, while a diluted agonist was added to the agonist group, at a volume of 100 µL for each group. The plates were then sealed and allowed to incubate at room temperature for 15 min. Then, we removed the Stimulation Buffer 4 from the wells and added 30 µL of Stabilization Buffer 1, sealed the plate, and incubated it at room temperature for 15 min. Afterward, Stabilization Buffer 1 was removed, and the wells were washed three times with 100 µL of Wash Buffer 1. Following that, 100 µL of pre-mixed d2 and Eu cryptate antibodies were added to the wells, and the plates were sealed and incubated overnight at room temperature. Finally, the plates were read using an HTRF-compatible reader.

Experiment [4] has as its target T1, M1mAChR. In words: cell-based.
Target sequence in this assay (P32121 whole entry partner, one chain of several): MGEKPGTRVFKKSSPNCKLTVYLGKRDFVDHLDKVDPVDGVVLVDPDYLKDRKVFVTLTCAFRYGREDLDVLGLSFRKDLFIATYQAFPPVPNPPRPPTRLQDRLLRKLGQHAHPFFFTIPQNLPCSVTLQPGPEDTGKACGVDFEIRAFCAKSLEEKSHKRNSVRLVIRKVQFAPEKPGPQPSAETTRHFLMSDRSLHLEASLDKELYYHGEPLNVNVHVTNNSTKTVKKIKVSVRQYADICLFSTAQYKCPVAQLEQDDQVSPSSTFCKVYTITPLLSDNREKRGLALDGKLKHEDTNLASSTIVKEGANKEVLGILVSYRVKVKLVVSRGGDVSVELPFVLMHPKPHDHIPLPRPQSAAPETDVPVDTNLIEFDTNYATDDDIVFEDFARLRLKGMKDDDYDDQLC
Experiment [5] has as its target T1, M1mAChR. It is filed as cell-based. To be noted: Scopolamine 100 μM; agonist 1 μM (Pilocarpine 300 μM); mean response 100 s before vs after antagonist. On the procedure:
(§1) Incubate the cells for another 24 h at 37 °C with 5% CO2 until the cell density reaches 70%~80%. To transfect the cells, use expression constructs (total 0.1 μg/well) with a 1:1:1:1 DNA ratio of M1-RLuc8/Gαq/Gβ2/Gγ2-mVenus, or a 1:2 DNA ratio of M1-RLuc8/β-arrestin2-mVenus, and LipofectamineTM 3000 (0.15 µL/well) reagents (Thermo Scientific, Waltham, MA, USA, Cat. No. R25001). Incubate the cells for another 24 h at 37 °C with 5% CO2. […] Then, add 10 µL of freshly prepared luciferase substrate (here, Coelenterazine h was added at a final concentration of 5 μM, Hangzi Biotechnology, Shanghai, China) and mix the solution.
Target sequence in this assay (P50148 whole entry partner, one chain of several): as the sequence (P50148 whole entry partner, one chain of several) above
Target sequence in this assay (P62879 2-340 partner limits assumed, one chain of several): as the sequence (P62879 2-340 partner limits assumed, one chain of several) above
Target sequence in this assay (P59768 2-68 partner limits assumed, one chain of several): as the sequence (P59768 2-68 partner limits assumed, one chain of several) above

Another experiment has as its system muscarinic. Also noted: method as in PMID 22948826. To be noted: times more potent than ACh; cited from earlier work.
In experiment [6] the target is T2, M1mAChR. It is filed as cell-based. To be noted: BRET assays. Here is the method:
The potencies and efficacies of Gαq and β-arrestin2 were verified using BRET assays, as well as commercial methods, to monitor G protein binding and β-arrestin recruitment (refer to Figure 7). […] The BRET concentration–response curves were analyzed by either conducting normalization to a reference agonist for each experiment or by analyzing them as raw net BRET (fit Emax-fit baseline). The EC50 and Emax values were estimated by fitting all biological replicates simultaneously. […] To estimate the putative signaling bias between the Gαq and β-arrestin pathways, the ΔΔlog(τ/KA) method was used, based on the following equation: bias = 10^ΔΔlog(τ/KA) Gαq−β-arrestin [46], which is derived from the RAi equation [29]. Here, ΔΔlog (τ/KA) Gαq−β-arrestin = Δlog(τ/KA) Gαq − Δlog(τ/KA) β-arrestin. For all statistically analyzed studies, the experiments were performed at least three times independently. The experiments were carried out in a randomized manner. The results are presented as the mean ± SEM. Statistical analysis was performed with a one-way analysis of variance (ANOVA). A value of p < 0.05 was considered statistically significant.

For experiment [7], the target named is T1, M1mAChR. It is filed as cell-based. Here is the method:
The kinetic response of the agonists to β-arrestin recruitment was analyzed.
The mean response over 100 s before and after the injection of the antagonist was also analyzed.
as §1
Target sequence in this assay (P32121 whole entry partner, one chain of several): as the sequence (P32121 whole entry partner, one chain of several) above

The target of experiment [8] is T2, M1mAChR. It is filed as cell-based. To be noted: calcium assay and commercial β-arrestin recruitment method. (In general: Arrestin recruitment assays detect the binding of arrestin to an activated receptor.)
Where [9] appears, read: dose-response curve, unit inferred, read-out: EC50, Gαq interaction with M1mAChR (BRET), in Figure 2 panels.
Where [10] appears, read: read-out: EC50, Gαq binding to M1mAChR (BRET).
Setting [11] is: dose-response curve, unit inferred, read-out: EC50, β-arrestin2 interaction with M1mAChR (BRET), Figure 4.
Setting [12] is: read-out: EC50, β-arrestin2 binding to M1mAChR (BRET).
Where [13] appears, read: relative intrinsic activity, relative to ACh.

For the compound `C[N+](C)(C)CC#CCOC(=O)Nc1cccc(Cl)c1` [McN-A-343], the EC50 was 11.1 nM at M1mAChR [1] (setting [9]); 11 nM on M1mAChR [1] (setting [10]); 718 nM at M1mAChR [2]; 1550 nM on M1mAChR [3]; 981 nM on M1mAChR [4] (setting [11]); 980 nM at M1mAChR [4] (setting [12]).

As for `C[N+](C)(C)CC#CCOC1=NOCC1` [Iperoxo], the “decrease of agonist-induced Gαq BRET response by Scopolamine” value on M1mAChR [5] is reported as “approximately 41%”. In addition, the EC50 at M1mAChR [1] (setting [9]) is 24.8 nM; on M1mAChR [1] (setting [10]) it was 24.8 nM; on M1mAChR [2], 12.5 nM; at M1mAChR [3], 646 nM; on M1mAChR [4] (setting [11]), 72 nM; on M1mAChR [4] (setting [12]), 72 nM. Moreover, the “Gαq (BRET) (Δlog (τ/KA))” value on M1mAChR [1] (setting [13]) is recorded as 1.56 ± 0.090. In addition, the “Gαq (Fluo4-AM) (Δlog (τ/KA))” value at M1mAChR [2] (setting [13]) is on record as 0.98 ± 0.003. Moreover, on M1mAChR [3] (setting [13]), the “β-Arrestin (FRET) (Δlog (τ/KA))” value is given as −0.03 ± 0.040. The “β-Arrestin (BRET) (Δlog (τ/KA))” value at M1mAChR [4] (setting [13]) stood at 1.27 ± 0.020. Moreover, the “potency relative to ACh” value in the experiment with muscarinic is “approximately 100 times”. In addition, the “∆∆RAi (Gαq − β-arrestin2)” value at M1mAChR [6] stood at 0.3. Further, the “bias factor (Gαq vs β-arrestin2)” value at M1mAChR [6] (bias = 10^ΔΔlog(τ/KA) Gαq−β-arrestin, relative to ACh) came to 2. Further, on M1mAChR [7], the “decrease of agonist-induced β-arrestin2 BRET response by Atropine” value came out at 60%. For the same compound, the “decrease of agonist-induced β-arrestin2 BRET response by Scopolamine” value on M1mAChR [7] came out at 54%. The “signaling bias by commercial methods” value on M1mAChR [8] is “predominantly biased towards Gαq”.
